Experimental data published in publication PMC9250534, “Synthesis and direct assay of large macrocycle diversities by combinatorial late-stage modification at picomole scale” (Nature Communications, 2022).
Numbered stars: 1 amine (or outer) side, 2 acyl side, 3 side chain; on linkers, the order of the positions; unused ones are H or OH. Bridge positions count the residues as written; N and C are the ends. Square brackets hold non-standard residues; d marks the D form. Peptide text beside a SMILES is read from it. * marks the point of attachment. ξ: configuration not given here. Pro(cis-4-NH-(E)-Cinnamoyl) = O=C(/C=C/c1ccccc1)N[C@@H]1CN[C@H](C(=O)O)C1; Pro(4S-NHCO(5-Cl-2-thienyl)) = O=C(N[C@@H]1CN[C@H](C(=O)O)C1)c1ccc(Cl)s1; ξPro(4ξ-NHCOC6H4-4-Cl) = O=C(NC1CNC(C(=O)O)C1)c1ccc(Cl)cc1; 1,2,3Thiadiazole5CO(4-Me) = Cc1nnsc1C(=O)*; Isoorotoyl = O=C(c1c[nH]c(=O)[nH]c1=O)*; 2Thenoyl(5-Cl) = O=C(c1ccc(Cl)s1)*; Pentanoyl(4-Me) = CC(C)CCC(=O)*; Cysteamide = C(CS[*:3])N[*:1]; MeOSuc = COC(=O)CCC(=O)*; X1 = O=C(/C=C/c1ccccc1)*; Api = NC1(C(=O)O)CCNCC1; Dap = NC[C@H](N)C(=O)O; Mpa = O=C(O)CCS

Biological target: MDM2 (Homo sapiens, UniProt Q00987)
Sequence (Q00987 whole entry): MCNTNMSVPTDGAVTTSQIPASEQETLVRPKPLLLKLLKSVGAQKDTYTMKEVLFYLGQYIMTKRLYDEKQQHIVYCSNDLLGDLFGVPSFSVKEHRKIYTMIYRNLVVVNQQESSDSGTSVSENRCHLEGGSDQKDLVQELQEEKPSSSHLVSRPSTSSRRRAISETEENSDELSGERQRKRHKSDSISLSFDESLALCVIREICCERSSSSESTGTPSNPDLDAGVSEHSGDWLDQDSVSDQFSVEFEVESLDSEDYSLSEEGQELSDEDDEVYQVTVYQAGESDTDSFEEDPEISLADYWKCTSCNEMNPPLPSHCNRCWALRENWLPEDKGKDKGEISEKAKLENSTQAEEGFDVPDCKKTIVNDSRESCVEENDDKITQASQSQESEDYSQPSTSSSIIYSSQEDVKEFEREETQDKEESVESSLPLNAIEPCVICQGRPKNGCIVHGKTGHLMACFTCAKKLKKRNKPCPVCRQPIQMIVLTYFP
Test: MDM2 binding screen: displacement of fluorescent p53 peptide probe FP53 (fluorescence polarization)
Conditions: for fraction fluorescent probe displaced, Screen: initial screen; for fraction fluorescent probe displaced, Screen / fraction fluorescent probe displaced, Replicate: crude macrocycle reactions
How it was run: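 Macrocycle reaction products at a final 10 µM were tested for displacement of a p53-based fluorescent peptide from human MDM2. Fluorescence anisotropy (ex 485/em 535 nm) was read once per macrocycle at 25 °C.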

[1] = 10 µM macrocycle concentration, crude acylated macrocycle (scaffold Mpa-AA1-AA2-AA3 x carboxylic acid), p53-based fluorescent peptide, human MDM2

## O=C1CCSSCCNC(=O)[C@@H]2C[C@H](NC(=O)c3ccc(Cl)cc3)CN2C(=O)[C@H](Cc2ccccc2)NC(=O)c2cccc(c2)CN1 [X B5 F D5 Acid 25]
Acid 25
  fraction fluorescent probe displaced, Screen: 0.0244
Acid 25, replicate
  fraction fluorescent probe displaced, Replicate: 0.10

## O=C(NC[C@@H]1NC(=O)[C@H](Cc2ccccc2)NC(=O)[C@H]2CCCN(C2)C(=O)CCSSCCNC1=O)c1ccc(Cl)cc1 [X B4 F D3 Acid 25]
Acid 25
  fraction fluorescent probe displaced, Screen: 0.09
Acid 25, replicate
  fraction fluorescent probe displaced, Replicate: 0.12

## O=C1CCSSCCNC(=O)c2cccc(c2)CNC(=O)C2CC(NC(=O)c3ccc(Cl)s3)CN2C(=O)C(Cc2ccccc2)N1 (stereo not shown) [X F D5 B5 Acid 14]
Acid 14
  fraction fluorescent probe displaced, Screen: -0.00483
Acid 14, replicate
  fraction fluorescent probe displaced, Replicate: -0.00432

## O=C1CCNC(=O)C2(CCN(C(=O)C=Cc3ccccc3)CC2)NC(=O)C(Cc2c[nH]c3ccccc23)NC(=O)CCSSCCN1 (stereo not shown) [X W D6 B2 Acid 91]
Acid 91
  fraction fluorescent probe displaced, Screen: 0.32
Acid 91, replicate
  fraction fluorescent probe displaced, Replicate: 0.0168

## O=C(/C=C/c1ccccc1)NC[C@@H]1NC(=O)[C@H](Cc2c[nH]c3ccccc23)NC(=O)[C@H]2CCCN(C2)C(=O)CCSSCCNC1=O [X B4 W D3 Acid 91]
Acid 91
  fraction fluorescent probe displaced, Screen: 0.16
Acid 91, replicate
  fraction fluorescent probe displaced, Replicate: 0.09

## O=C1CCSSCCNC(=O)[C@@H]2C[C@H](NC(=O)c3ccc(Cl)s3)CN2C(=O)CCNC(=O)[C@H](Cc2ccccc2)N1 [X F B2 D5 Acid 14]
Acid 14
  fraction fluorescent probe displaced, Screen: 0.08
Acid 14, replicate
  fraction fluorescent probe displaced, Replicate: 0.07

## CC(C)CCC(=O)NC[C@@H]1NC(=O)[C@@H]2CCCN2C(=O)CCSSCCNC(=O)[C@H](Cc2ccccc2)NC1=O [X-B1-D3-F + A68] ([Mpa]P[Dap](Pentanoyl(4-Me))F-Cysteamide; disulfide 1-C)
[1]
  fraction fluorescent probe displaced: -0.1369

## O=C1CCSSCCNC(=O)[C@@H]2CCCN2C(=O)[C@@H]2C[C@H](NC(=O)c3ccc(Cl)s3)CN2C(=O)[C@H](Cc2c[nH]c3ccccc23)N1 [X W D5 B1 Acid 14] ([Mpa]W[Pro(4S-NHCO(5-Cl-2-thienyl))]P-Cysteamide; disulfide 1-C)
Acid 14
  fraction fluorescent probe displaced, Screen: 0.28
Acid 14, replicate
  fraction fluorescent probe displaced, Replicate: 0.22

## O=C(NC1CC2C(=O)N3CCCC(C3)C(=O)NC(Cc3c[nH]c4ccccc34)C(=O)NCCSSCCC(=O)N2C1)c1ccc(Cl)s1 (stereo not shown) [X D5 B4 W Acid 14]
Acid 14
  fraction fluorescent probe displaced, Screen: 0.11
Acid 14, replicate
  fraction fluorescent probe displaced, Replicate: 0.12

## O=C1CCSSCCNC(=O)C2CN(C(=O)C=Cc3ccccc3)CCN2C(=O)C(Cc2ccccc2)NC(=O)c2cccc(c2)CN1 (stereo not shown) [X B5 F D7 Acid 91]
Acid 91
  fraction fluorescent probe displaced, Screen: -0.05
Acid 91, replicate
  fraction fluorescent probe displaced, Replicate: -0.06

## O=C1CCSSCCNC(=O)C2(CCN(C(=O)c3ccc(Cl)s3)CC2)NC(=O)c2cccc(c2)CNC(=O)C(Cc2ccccc2)N1 (stereo not shown) [X F B5 D6 Acid 14]
Acid 14
  fraction fluorescent probe displaced, Screen: 0.11
Acid 14, replicate
  fraction fluorescent probe displaced, Replicate: 0.10

## CC(C)CCC(=O)NC[C@@H]1NC(=O)[C@@H]2CCCN2C(=O)CCSSCCNC(=O)[C@H](Cc2c[nH]c3ccccc23)NC1=O [X-B1-D3-W + A68] ([Mpa]P[Dap](Pentanoyl(4-Me))W-Cysteamide; disulfide 1-C)
[1]
  fraction fluorescent probe displaced: -0.02228

## O=C1CCSSCCNC(=O)[C@@H]2CCCN2C(=O)[C@H](CNC(=O)c2ccc(Cl)s2)NC(=O)[C@H](Cc2c[nH]c3ccccc23)N1 [X W D3 B1 Acid 14] ([Mpa]W[Dap](2Thenoyl(5-Cl))P-Cysteamide; disulfide 1-C)
Acid 14
  fraction fluorescent probe displaced, Screen: 0.28
Acid 14, replicate
  fraction fluorescent probe displaced, Replicate: 0.28

## O=C1CCNC(=O)C2(CCN(C(=O)c3ccc(Cl)s3)CC2)NC(=O)CCSSCCNC(=O)[C@H](Cc2c[nH]c3ccccc23)N1 [X D6 B2 W Acid 14]
Acid 14
  fraction fluorescent probe displaced, Screen: 0.17
Acid 14, replicate
  fraction fluorescent probe displaced, Replicate: 0.20

## O=C1CCNC(=O)C2(CCN(C(=O)c3ccc(Cl)s3)CC2)NC(=O)[C@H](Cc2ccccc2)NC(=O)CCSSCCN1 [X F D6 B2 Acid 14]
Acid 14
  fraction fluorescent probe displaced, Screen: -0.00483
Acid 14, replicate
  fraction fluorescent probe displaced, Replicate: 0.0465

## O=C1CCSSCCNC(=O)c2cccc(c2)CNC(=O)[C@H](CNC(=O)c2ccc(Cl)s2)NC(=O)[C@H](Cc2c[nH]c3ccccc23)N1 [X W D3 B5 Acid 14]
Acid 14
  fraction fluorescent probe displaced, Screen: 0.31
Acid 14, replicate
  fraction fluorescent probe displaced, Replicate: 0.07

## O=C(/C=C/c1ccccc1)N[C@H]1C[C@H]2C(=O)N3CCC[C@H]3C(=O)N[C@@H](Cc3c[nH]c4ccccc34)C(=O)NCCSSCCC(=O)N2C1 [X D5 B1 W Acid 91] ([Mpa][Pro(cis-4-NH-(E)-Cinnamoyl)]PW-Cysteamide; disulfide 1-C)
Acid 91
  fraction fluorescent probe displaced, Screen: 0.03
Acid 91, replicate
  fraction fluorescent probe displaced, Replicate: 0.07

## O=C(/C=C/c1ccccc1)NC[C@@H]1NC(=O)CCSSCCNC(=O)[C@H](Cc2ccccc2)NC(=O)CCNC1=O [X D3 B2 F Acid 91]
Acid 91
  fraction fluorescent probe displaced, Screen: 0.08
Acid 91, replicate
  fraction fluorescent probe displaced, Replicate: 0.04

## O=C1CCSSCCNC(=O)c2cccc(c2)CNC(=O)C(CNC(=O)c2ccc(Cl)cc2)NC(=O)C(Cc2c[nH]c3ccccc23)N1 (stereo not shown) [X W D3 B5 Acid 25]
Acid 25
  fraction fluorescent probe displaced, Screen: 0.12
Acid 25, replicate
  fraction fluorescent probe displaced, Replicate: 0.17

## O=C1NCCSSCCC(=O)N2CCC[C@H]2C(=O)NC2(CCN(C(=O)/C=C/c3ccccc3)CC2)C(=O)N[C@H]1Cc1c[nH]c2ccccc12 [X B1 D6 W Acid 91] ([Mpa]P[Api](X1)W-Cysteamide; disulfide 1-C)
Acid 91
  fraction fluorescent probe displaced, Screen: -0.08
Acid 91, replicate
  fraction fluorescent probe displaced, Replicate: -0.08

## O=C(N[C@H]1C[C@H]2C(=O)N[C@@H](Cc3c[nH]c4ccccc34)C(=O)NCCSSCCC(=O)N3CCC[C@@H](C3)C(=O)N2C1)c1ccc(Cl)s1 [X B4 D5 W Acid 14]
Acid 14
  fraction fluorescent probe displaced, Screen: 0.11
Acid 14, replicate
  fraction fluorescent probe displaced, Replicate: 0.0211

## O=C1CCSSCCNC(=O)[C@H](Cc2c[nH]c3ccccc23)NC(=O)CCNC(=O)[C@H](CNC(=O)c2ccc(Cl)cc2)N1 [X D3 B2 W Acid 25]
Acid 25
  fraction fluorescent probe displaced, Screen: 0.12
Acid 25, replicate
  fraction fluorescent probe displaced, Replicate: 0.0465

## O=C1NCCSSCCC(=O)N2CCN(C(=O)c3ccc(Cl)cc3)CC2C(=O)N2CCCC2C(=O)NC1Cc1ccccc1 (stereo not shown) [X D7 B1 F Acid 25]
Acid 25
  fraction fluorescent probe displaced, Screen: 0.0569
Acid 25, replicate
  fraction fluorescent probe displaced, Replicate: 0.12

## O=C(NCC1NC(=O)C2CCCN(C2)C(=O)CCSSCCNC(=O)C(Cc2ccccc2)NC1=O)c1ccc(Cl)s1 (stereo not shown) [X B4 D3 F Acid 14]
Acid 14
  fraction fluorescent probe displaced, Screen: 0.14
Acid 14, replicate
  fraction fluorescent probe displaced, Replicate: 0.15

## O=C(/C=C/c1ccccc1)NC[C@@H]1NC(=O)CCNC(=O)[C@H](Cc2ccccc2)NC(=O)CCSSCCNC1=O [X F B2 D3 Acid 91]
Acid 91
  fraction fluorescent probe displaced, Screen: 0.03
Acid 91, replicate
  fraction fluorescent probe displaced, Replicate: 0.04

## O=C1CCSSCCNC(=O)C2(CCN(C(=O)C=Cc3ccccc3)CC2)NC(=O)C(Cc2c[nH]c3ccccc23)NC(=O)CCN1 (stereo not shown) [X B2 W D6 Acid 91]
Acid 91
  fraction fluorescent probe displaced, Screen: 0.0563
Acid 91, replicate
  fraction fluorescent probe displaced, Replicate: 0.07

## Cc1nnsc1C(=O)NC[C@@H]1NC(=O)[C@@H]2CCCN2C(=O)CCSSCCNC(=O)[C@H](Cc2ccccc2)NC1=O [X-B1-D3-F + A15] ([Mpa]P[Dap](1,2,3Thiadiazole5CO(4-Me))F-Cysteamide; disulfide 1-C)
[1]
  fraction fluorescent probe displaced: -0.03374

## O=C1CCSSCCNC(=O)C2CN(C(=O)c3ccc(Cl)cc3)CCN2C(=O)C(Cc2c[nH]c3ccccc23)NC(=O)c2cccc(c2)CN1 (stereo not shown) [X B5 W D7 Acid 25]
Acid 25
  fraction fluorescent probe displaced, Screen: 0.12
Acid 25, replicate
  fraction fluorescent probe displaced, Replicate: 0.07

## O=C1CCSSCCNC(=O)C2(CCN(C(=O)c3ccc(Cl)s3)CC2)NC(=O)[C@H](Cc2ccccc2)NC(=O)CCN1 [X B2 F D6 Acid 14]
Acid 14
  fraction fluorescent probe displaced, Screen: 0.08
Acid 14, replicate
  fraction fluorescent probe displaced, Replicate: 0.12

## O=C(NC[C@@H]1NC(=O)[C@H](Cc2c[nH]c3ccccc23)NC(=O)[C@H]2CCCN(C2)C(=O)CCSSCCNC1=O)c1ccc(Cl)s1 [X B4 W D3 Acid 14]
Acid 14
  fraction fluorescent probe displaced, Screen: 0.11
Acid 14, replicate
  fraction fluorescent probe displaced, Replicate: 0.10

## COC(=O)CCC(=O)NC[C@@H]1NC(=O)[C@@H]2CCCN2C(=O)CCSSCCNC(=O)[C@H](Cc2ccccc2)NC1=O [X-B1-D3-F + A93] ([Mpa]P[Dap](MeOSuc)F-Cysteamide; disulfide 1-C)
[1]
  fraction fluorescent probe displaced: 0.05512

## O=C(/C=C/c1ccccc1)NC[C@@H]1NC(=O)[C@H](Cc2c[nH]c3ccccc23)NC(=O)[C@@H]2CCCN2C(=O)CCSSCCNC1=O [X B1 W D3 Acid 91] ([Mpa]PW[Dap](X1)-Cysteamide; disulfide 1-C)
Acid 91
  fraction fluorescent probe displaced, Screen: 0.08
Acid 91, replicate
  fraction fluorescent probe displaced, Replicate: 0.04

## O=C1CCSSCCNC(=O)C2CC(NC(=O)c3ccc(Cl)cc3)CN2C(=O)C2CCCN2C(=O)C(Cc2c[nH]c3ccccc23)N1 (stereo not shown) [X W B1 D5 Acid 25] ([Mpa]WP[ξPro(4ξ-NHCOC6H4-4-Cl)]-Cysteamide; disulfide 1-C; configuration not given here)
Acid 25
  fraction fluorescent probe displaced, Screen: 0.15
Acid 25, replicate
  fraction fluorescent probe displaced, Replicate: 0.17

## O=C(NC[C@@H]1NC(=O)[C@@H]2CCCN2C(=O)CCSSCCNC(=O)[C@H](Cc2ccccc2)NC1=O)c1c[nH]c(=O)[nH]c1=O [X-B1-D3-F + A11] ([Mpa]P[Dap](Isoorotoyl)F-Cysteamide; disulfide 1-C)
[1]
  fraction fluorescent probe displaced: 0.04782

## O=C1NCCSSCCC(=O)N2CCN(C(=O)c3ccc(Cl)s3)CC2C(=O)NC(Cc2ccccc2)C(=O)N2CCCC1C2 (stereo not shown) [X D7 F B4 + Acid 14]
Crude reaction of macrocycle scaffold with Acid 14, (initial screen)
  fraction fluorescent probe displaced: 0.0241
Crude reaction of macrocycle scaffold with Acid 14, replicate
  fraction fluorescent probe displaced: -0.00432

## O=C1NCCSSCCC(=O)N2CCC[C@H]2C(=O)NC2(CCN(C(=O)c3ccc(Cl)s3)CC2)C(=O)N[C@H]1Cc1ccccc1 [X B1 D6 F Acid 14] ([Mpa]P[Api](2Thenoyl(5-Cl))F-Cysteamide; disulfide 1-C)
Acid 14
  fraction fluorescent probe displaced, Screen: -0.0116
Acid 14, replicate
  fraction fluorescent probe displaced, Replicate: 0.07
